The values below come from patent US20240025906A1 (NEURON23, INC., priority 2022, published 2024).

One assay deals with T1, TYK2 JH2 (Homo sapiens, UniProt P29597).
T1 construct: purchased DiscoverX (KINOMEscan KdELECT service); host or cells: E. coli BL21-derived (T7 phage display) or HEK-293
Kind of assay: TYK2 JH2 binding assay (KINOMEscan KdELECT competitive binding). The note with it: TYK2 JH2 domain, DiscoverX KINOMEscan KdELECT (Assay A); read-out: Biochemical TYK2_DiscoverX_JH2_BND_Kd. The procedure, abridged: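 Test compounds were titrated in 11 three-fold steps against JH2 fragment captured on ligand-loaded magnetic beads, with 1 h incubation at room temperature and DMSO at 0.9%. Eluted kinase was quantified by qPCR, and Kd was fitted from the dose series.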

Assay [1] deals with JAK1/TYK2 pSTAT5 (Tyr694/699) in THP-1 cell line. Description: IFNa-stimulated JAK1/TYK2 pSTAT5 (Tyr694/699) inhibition cellular assay, AlphaLISA. Conditions: Homo sapiens; THP-1 cells, IFNa-stimulated, AlphaLISA (Assay B); read-out: Cellular_THP1_IFNa-pSTATS_TYK2. It counts as cell-based. The procedure, abridged:
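An eight-point 6-fold titration of compound (0.04–10000 nM final) is given to THP-1 cells for 1 h before 30 min of IFNa exposure. Phospho-STAT5 is read by AlphaLISA at 615 nm. IC50 values are derived by logistic regression with bottom set to 0 and Hill slope set to −1.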

T1 sequence (P29597 589-875 limits assumed): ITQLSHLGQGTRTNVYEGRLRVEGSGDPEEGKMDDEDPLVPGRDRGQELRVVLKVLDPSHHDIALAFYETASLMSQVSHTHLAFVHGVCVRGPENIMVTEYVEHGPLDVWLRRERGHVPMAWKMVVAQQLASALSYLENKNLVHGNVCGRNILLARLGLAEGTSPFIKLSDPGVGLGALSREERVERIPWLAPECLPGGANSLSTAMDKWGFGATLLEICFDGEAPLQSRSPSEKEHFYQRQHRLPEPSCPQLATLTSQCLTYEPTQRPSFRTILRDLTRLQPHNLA

For the molecule `CNc1ncc(-c2nc3cc(COC)ccc3o2)c2cc(NC(=O)C3CC3)ncc12` [Example 248, N-(5-(5-(methoxymethyl)benzo[d]oxazol-2-yl)-8-(methylamino)-2,7-naphthyridin-3-yl)cyclopropanecarboxamide], the Kd on TYK2 JH2 was no more than 0.1 µM. In assay [1], the IC50 was no more than 0.5 µM.

Regarding `CNc1ncc(-c2nc3cc(C4CCOCC4C)ccc3o2)c2cc(NC(=O)C3CC3)ncc12` (stereo not shown) [Example 249, N-(8-(methylamino)-5-(5-(3-methyltetrahydro-2H-pyran-4-yl)benzo[d]oxazol-2-yl)-2,7-naphthyridin-3-yl)cyclopropanecarboxamide], the Kd on TYK2 JH2 is no more than 0.1 µM. Besides, the IC50 in assay [1] is no more than 0.5 µM.

On to `CNc1ncc(-c2nc3cc(OC4CN(S(C)(=O)=O)C4)ccc3o2)c2cc(NC(=O)C3CC3)ncc12` [Example 250, N-(8-(methylamino)-5-(5-((1-(methylsulfonyl)azetidin-3-yl)oxy)benzo[d]oxazol-2-yl)-2,7-naphthyridin-3-yl)cyclopropanecarboxamide], for which, at TYK2 JH2, the Kd is no more than 0.1 µM. Moreover, in assay [1], the IC50 is no more than 0.5 µM.

On to `CNc1ncc(-c2nc3cc(OC4CN(C5CCOC5)C4)ccc3o2)c2cc(NC(=O)C3CC3)ncc12` (stereo not shown) [Example 251, N-(8-(methylamino)-5-(5-((1-(tetrahydrofuran-3-yl)azetidin-3-yl)oxy)benzo[d]oxazol-2-yl)-2,7-naphthyridin-3-yl)cyclopropanecarboxamide], for which, at TYK2 JH2, the Kd is no more than 0.1 µM. In addition, the IC50 in assay [1] was no more than 0.5 µM.

On to `CNc1ncc(-c2nc3cc(C4CN(S(C)(=O)=O)C4)ccc3o2)c2cc(NC(=O)C3CC3)ncc12` [Example 252, N-(8-(methylamino)-5-(5-(1-(methylsulfonyl)azetidin-3-yl)benzo[d]oxazol-2-yl)-2,7-naphthyridin-3-yl)cyclopropanecarboxamide], for which the Kd at TYK2 JH2 was no more than 0.1 µM. Further, the IC50 in assay [1] is no more than 0.5 µM.

As to `CNc1ncc(-c2nc3cc(OC4CCOCC4)ccc3o2)c2cc(NC(=O)C3CC3)ncc12` [Example 253, N-(8-(methylamino)-5-(5-((tetrahydro-2H-pyran-4-yl)oxy)benzo[d]oxazol-2-yl)-2,7-naphthyridin-3-yl)cyclopropanecarboxamide], at TYK2 JH2, the Kd was no more than 0.1 µM. The IC50 in assay [1] was no more than 0.5 µM.

Consider `CNc1ncc(-c2nc3ccc(CO)cc3o2)c2cc(NC(=O)C3CC3)ncc12` [Example 254, N-(5-(6-(hydroxymethyl)benzo[d]oxazol-2-yl)-8-(methylamino)-2,7-naphthyridin-3-yl)cyclopropanecarboxamide], for which the Kd on TYK2 JH2 was no more than 0.1 µM. Further, in assay [1], the IC50 is no more than 0.5 µM.

On to `CNc1ncc(-c2nc3cc(CC(F)(F)F)ccc3o2)c2cc(NC(=O)C3CC3)ncc12` [Example 255, N-(8-(methylamino)-5-(5-(2,2,2-trifluoroethyl)benzo[d]oxazol-2-yl)-2,7-naphthyridin-3-yl)cyclopropanecarboxamide], for which the Kd at TYK2 JH2 was no more than 0.1 µM. The IC50 in assay [1] was no more than 0.5 µM.

Consider `CNc1ncc(-c2nc3cc(OCC(C)(C)OC)ccc3o2)c2cc(NC(=O)C3CC3)ncc12` [Example 256, N-(5-(5-(2-methoxy-2-methylpropoxy)benzo[d]oxazol-2-yl)-8-(methylamino)-2,7-naphthyridin-3-yl)cyclopropanecarboxamide], for which the Kd on TYK2 JH2 is no more than 0.1 µM. In assay [1], the IC50 is no more than 0.5 µM.

For the molecule `CNc1ncc(-c2nc3cc(CS(C)(=O)=O)ccc3o2)c2cc(NC(=O)C3CC3)ncc12` [Example 257, N-(8-(methylamino)-5-(5-((methylsulfonyl)methyl)benzo[d]oxazol-2-yl)-2,7-naphthyridin-3-yl)cyclopropanecarboxamide], the Kd on TYK2 JH2 is no more than 0.1 µM. Also, in assay [1], the IC50 was no more than 0.5 µM.

In the case of `CNc1ncc(-c2nc3cc(C4COC4)ccc3o2)c2cc(NC(=O)C3CC3)ncc12` [Example 258, N-(8-(methylamino)-5-(5-(oxetan-3-yl)benzo[d]oxazol-2-yl)-2,7-naphthyridin-3-yl)cyclopropanecarboxamide], at TYK2 JH2, the Kd is no more than 0.1 µM. The IC50 in assay [1] is no more than 0.5 µM.

With `CNc1ncc(-c2nc3cc(N4CCOC(C)C4)c(C)cc3o2)c2cc(NC(=O)C3CC3)ncc12` (stereo not shown) [Example 259, N-(5-(6-methyl-5-(2-methylmorpholino)benzo[d]oxazol-2-yl)-8-(methylamino)-2,7-naphthyridin-3-yl)cyclopropanecarboxamide], the Kd at TYK2 JH2 is no more than 0.1 µM. Moreover, in assay [1], the IC50 is no more than 0.5 µM.

Regarding `CNc1ncc(-c2nc3cccc(N4CCC4COC)c3o2)c2cc(NC(=O)C3CC3)ncc12` (stereo not shown) [Example 263, N-(5-(7-(2-(methoxymethyl)azetidin-1-yl)benzo[d]oxazol-2-yl)-8-(methylamino)-2,7-naphthyridin-3-yl)cyclopropanecarboxamide], the Kd on TYK2 JH2 was no more than 0.1 µM. Further, the IC50 in assay [1] was greater than 0.5 µM.

On to `CNc1ncc(-c2nc3cccc(N4CC(COC)C4)c3o2)c2cc(NC(=O)C3CC3)ncc12` [Example 264, N-(5-(7-(3-(methoxymethyl)azetidin-1-yl)benzo[d]oxazol-2-yl)-8-(methylamino)-2,7-naphthyridin-3-yl)cyclopropanecarboxamide], for which the Kd on TYK2 JH2 was no more than 0.1 µM. In addition, in assay [1], the IC50 is no more than 0.5 µM.

Turning to `CNc1ncc(-c2nc3cccc(N4CCC4CO)c3o2)c2cc(NC(=O)C3CC3)ncc12` (stereo not shown) [Example 265, N-(5-(7-(2-(hydroxymethyl)azetidin-t-yl)benzo[d]oxazol-2-yl)-8-(methylamino)-2,7-naphthyridin-3-yl)cyclopropanecarboxamide], on TYK2 JH2, the Kd is no more than 0.1 µM. Besides, the IC50 in assay [1] is no more than 0.5 µM.

For `CNc1ncc(-c2nc3cccc(CC#N)c3o2)c2cc(NC(=O)C3CC3)ncc12` [Example 266, N-(5-(7-(cyanomethyl)benzo[d]oxazol-2-yl)-8-(methylamino)-2,7-naphthyridin-3-yl)cyclopropanecarboxamide], the Kd on TYK2 JH2 was no more than 0.1 µM. Further, the IC50 in assay [1] was no more than 0.5 µM.

For the molecule `CNc1ncc(-c2nc3cccc(COC)c3o2)c2cc(NC(=O)C3CC3)ncc12` [Example 267, N-(5-(7-(methoxymethyl)benzo[d]oxazol-2-yl)-8-(methylamino)-2,7-naphthyridin-3-yl)cyclopropanecarboxamide], at TYK2 JH2, the Kd was no more than 0.1 µM. Further, the IC50 in assay [1] was no more than 0.5 µM.

With `CCO/C=C\c1cccc2nc(-c3cnc(NC)c4cnc(NC(=O)C5CC5)cc34)oc12` [Example 268, (Z)—N-(5-(7-(2-ethoxyvinyl)benzo[d]oxazol-2-yl)-8-(methylamino)-2,7-naphthyridin-3-yl)cyclopropanecarboxamide], the Kd at TYK2 JH2 is no more than 0.1 µM. Besides, the IC50 in assay [1] was no more than 0.5 µM.

Turning to `CCOCCc1cccc2nc(-c3cnc(NC)c4cnc(NC(=O)C5CC5)cc34)oc12` [Example 269, N-(5-(7-(2-ethoxyethyl)benzo[d]oxazol-2-yl)-8-(methylamino)-2,7-naphthyridin-3-yl)cyclopropanecarboxamide], at TYK2 JH2, the Kd is no more than 0.1 µM. Moreover, the IC50 in assay [1] is no more than 0.5 µM.

Turning to `CNc1ncc(-c2nc3cccc(CCC#N)c3o2)c2cc(NC(=O)C3CC3)ncc12` [Example 270, N-(5-(7-(2-cyanoethyl)benzo[d]oxazol-2-yl)-8-(methylamino)-2,7-naphthyridin-3-yl)cyclopropanecarboxamide], the Kd at TYK2 JH2 is no more than 0.1 µM. In addition, the IC50 in assay [1] was no more than 0.5 µM.

As for `CNc1ncc(-c2nc3cccc(Cc4cocn4)c3o2)c2cc(NC(=O)C3CC3)ncc12` [Example 271, N-(8-(methylamino)-5-(7-(oxazol-4-ylmethyl)benzo[d]oxazol-2-yl)-2,7-naphthyridin-3-yl)cyclopropanecarboxamide], the Kd on TYK2 JH2 is no more than 0.1 µM. Besides, the IC50 in assay [1] is no more than 0.5 µM.

For the molecule `CNc1ncc(-c2nc3c(Br)cccc3o2)c2cc(NC(=O)C3CC3)ncc12` [Example 272, N-(5-(4-bromobenzo[d]oxazol-2-yl)-8-(methylamino)-2,7-naphthyridin-3-yl)cyclopropanecarboxamide], the Kd on TYK2 JH2 is no more than 0.1 µM. In addition, the IC50 in assay [1] was no more than 0.5 µM.

For the molecule `CNc1ncc(-c2nc3c(CC#N)cccc3o2)c2cc(NC(=O)C3CC3)ncc12` [Example 273, N-(5-(4-(cyanomethyl)benzo[d]oxazol-2-yl)-8-(methylamino)-2,7-naphthyridin-3-yl)cyclopropanecarboxamide], the Kd on TYK2 JH2 was no more than 0.1 µM. Besides, the IC50 in assay [1] was no more than 0.5 µM.

For `CNc1ncc(-c2nc3ccc(N4CC(OC)C4)cc3o2)c2cc(NC(=O)C3CC3)ncc12` [Example 274, N-(5-(6-(3-methoxyazetidin-1-yl)benzo[d]oxazol-2-yl)-8-(methylamino)-2,7-naphthyridin-3-yl)cyclopropanecarboxamide], the Kd on TYK2 JH2 is no more than 0.1 µM. For the same molecule, the IC50 in assay [1] was no more than 0.5 µM.

Turning to `CNc1ncc(-c2nc3ccc(N4CCO[C@@H](C)C4)cc3o2)c2cc(NC(=O)C3CC3)ncc12` [Example 275, (S)—N-(8-(methylamino)-5-(6-(2-methylmorpholino)benzo[d]oxazol-2-yl)-2,7-naphthyridin-3-yl)cyclopropanecarboxamide], at TYK2 JH2, the Kd was no more than 0.1 µM. Besides, the IC50 in assay [1] was no more than 0.5 µM.

Turning to `CNc1ncc(-c2nc3ccc(N4CCO[C@H](C)C4)cc3o2)c2cc(NC(=O)C3CC3)ncc12` [Example 276, (R)—N-(8-(methylamino)-5-(6-(2-methylmorpholino)benzo[d]oxazol-2-yl)-2,7-naphthyridin-3-yl)cyclopropanecarboxamide], the Kd at TYK2 JH2 was no more than 0.1 µM. Further, the IC50 in assay [1] is no more than 0.5 µM.
